What was measured:
[1] = target: T1, human AQ mutant (Hu-AQ) STING C-terminal binding domain protein (Homo sapiens, UniProt Q86WV6, G230A/H232R/R293Q); experiment: Thermal shift assay with recombinant STING C-terminal binding domain protein (Hu-AQ); conditions: test compound 0.5 mM; Tm minus Tm of well without compound
T1 construct: made in house; host or cells: E. coli Rosetta 2 (DE3), co-expressed with BirA
Protocol: (§1) Each expression strain was added to TB broth containing 100 μg/mL ampicillin, 50 μg/mL streptomycin, and 30 μg/mL kanamycin, and cultured at 37° C. Expression was then induced with 100 µM IPTG, and the cells were further cultured at 16° C.
(§2) The culture broth was centrifuged, and the obtained bacteria were frozen and thawed. The proteins were extracted by sonication, and the supernatant was collected by centrifugation. The resulting supernatant was purified through a HisTrap FF column (GE Healthcare) using an AKTAexpress chromatography system (GE Healthcare, IL, US), made to pass through a Superdex200 16/60 column (GE Healthcare), and eluted.
(§3) The binding of a compound to each STING C-terminal binding domain protein was determined by a thermal shift assay, which uses the increase in the thermal denaturation temperature of the protein as an indicator.
(§4) Specifically, each test compound (final concentration 0.5 mM), SYPRO Orange (final concentration: 20×concentration), and the STING protein were mixed in a 384-well real-time PCR plate using a plate shaker. […] Tm (the midpoint of the unfolding transition) (° C.) was determined as the temperature at which the rate of increase in fluorescence intensity reached its maximum value. The shift of Tm by the test compound was calculated as ΔTm (° C.) by subtracting, from the Tm value of each compound, the Tm value of the well without the compound.

[2] = target: T2, mouse wild type (Ms-WT) STING C-terminal binding domain protein (Mus musculus, UniProt Q3TBT3); experiment: Thermal shift assay with recombinant STING C-terminal binding domain protein (Ms-WT); conditions: test compound 0.5 mM; Tm minus Tm of well without compound
T2 construct: made in house; host or cells: E. coli Rosetta 2 (DE3), co-expressed with BirA
T2 sequence (Q3TBT3 with tags, fused parts or gaps): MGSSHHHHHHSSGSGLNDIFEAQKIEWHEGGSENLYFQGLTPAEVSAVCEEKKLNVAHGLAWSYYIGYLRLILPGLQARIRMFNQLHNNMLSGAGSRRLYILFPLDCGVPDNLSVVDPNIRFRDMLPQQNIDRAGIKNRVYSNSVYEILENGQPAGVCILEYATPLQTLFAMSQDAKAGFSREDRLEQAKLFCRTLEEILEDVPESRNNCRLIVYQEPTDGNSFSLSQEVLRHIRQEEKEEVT
Protocol: as §1, §2, §3
Specifically, each test compound (final concentration 0.5 mM), SYPRO Orange (final concentration: 20×concentration), and the STING protein were mixed in a 384-well real-time PCR plate using a plate shaker. A real-time PCR system was used to increase the temperature from 25° C. to 95° C. at a rate of 0.03° C. per second, and the thermal denaturation temperature of the protein was measured using the fluorescence emitted by SYPRO Orange as an indicator. Tm (the midpoint of the unfolding transition) (° C.) was determined as the temperature at which the rate of increase in fluorescence intensity reached its maximum value. The shift of Tm by the test compound was calculated as ΔTm (° C.) by subtracting, from the Tm value of each compound, the Tm value of the well without the compound.

[3] = target: T3, human wild-type (Hu-WT) STING C-terminal binding domain protein (Homo sapiens, UniProt Q86WV6, H232R); experiment: Thermal shift assay with recombinant STING C-terminal binding domain protein (Hu-WT); conditions: test compound 0.5 mM; Tm minus Tm of well without compound
T3 construct: made in house; host or cells: E. coli Rosetta 2 (DE3), co-expressed with BirA
T3 sequence (Q86WV6 with tags, fused parts or gaps H232R): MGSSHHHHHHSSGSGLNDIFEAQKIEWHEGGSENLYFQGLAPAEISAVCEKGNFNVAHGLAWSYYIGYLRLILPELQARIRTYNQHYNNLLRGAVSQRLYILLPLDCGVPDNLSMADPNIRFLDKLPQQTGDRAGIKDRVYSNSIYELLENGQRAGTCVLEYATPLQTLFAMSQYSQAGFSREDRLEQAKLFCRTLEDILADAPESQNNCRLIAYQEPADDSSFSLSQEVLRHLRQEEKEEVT
Protocol: as §1, §2, §3, §4

[4] = target: T4, human REF mutant (Hu-REF) STING C-terminal binding domain protein (Homo sapiens, UniProt Q86WV6); experiment: Thermal shift assay with recombinant STING C-terminal binding domain protein (Hu-REF); conditions: test compound 0.5 mM; Tm minus Tm of well without compound
T4 construct: made in house; host or cells: E. coli Rosetta 2 (DE3), co-expressed with BirA
T4 sequence (Q86WV6 with tags, fused parts or gaps, change not shown): as the sequence (Q86WV6 with tags, fused parts or gaps H232R) above, with R133H counted along it
Protocol: as §1, §2, §3, §4

human FcγRIIb/c = target: T5, human FcγRIIb/c (Homo sapiens, UniProt P31994); experiment: Human FcγRIIb/c binding activity by SPR; conditions: anti-EGFR antibodies as analyte, 0.9-4.7 μM
T5 construct: purchased R&D systems
T5 sequence (P31994 43-310): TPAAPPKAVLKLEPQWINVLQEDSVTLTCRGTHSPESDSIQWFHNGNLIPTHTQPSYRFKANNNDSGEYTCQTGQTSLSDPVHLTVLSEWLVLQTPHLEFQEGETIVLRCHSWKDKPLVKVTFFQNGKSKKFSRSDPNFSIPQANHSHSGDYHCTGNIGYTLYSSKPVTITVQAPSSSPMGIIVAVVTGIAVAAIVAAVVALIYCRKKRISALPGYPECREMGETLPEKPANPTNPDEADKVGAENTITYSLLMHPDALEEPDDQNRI
Protocol: (§5) The binding activity was determined by directly immobilizing human FcγR as a ligand onto a sensor chip, then adding each anti-EGFR antibody as an analyte to the sensor chip, and measuring the interaction between the ligand and the analyte by SPR. Recombinant Human Fc gammaRIIA/CD32a (R167) Protein (R&D systems) was immobilized as human FcγRIIa onto Sensor Chip CM5 according to the instructions of the kit. Then, the anti-EGFR antibody prepared at each concentration with HBS-EP+ was added to the sensor chip for 120 sec at a flow rate of 30 μL/min.
Recombinant Human Fc gamma RIIB/C (CD32b/c) Protein (R&D systems) was used as human FcγRIIb/c.

human FcγRIIIa = target: T6, human FcγRIIIa (Homo sapiens, UniProt P08637); experiment: Human FcγRIIIa binding activity by SPR; conditions: anti-EGFR antibodies as analyte, 0.9-4.7 μM
T6 construct: purchased R&D systems
T6 sequence (P08637 17-254): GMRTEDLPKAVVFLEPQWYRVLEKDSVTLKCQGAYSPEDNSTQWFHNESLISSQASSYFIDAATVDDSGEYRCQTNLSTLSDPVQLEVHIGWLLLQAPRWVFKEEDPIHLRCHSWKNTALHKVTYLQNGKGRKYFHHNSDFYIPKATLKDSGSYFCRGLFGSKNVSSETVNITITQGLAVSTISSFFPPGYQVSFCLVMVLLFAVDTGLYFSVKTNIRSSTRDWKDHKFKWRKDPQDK
Protocol: as §5
Recombinant Human Fc gamma RIIIA/CD16a protein (R&D systems) was used as human FcγRIIIa.

human FcγRIIIb = target: T7, human FcγRIIIb (Homo sapiens, UniProt O75015); experiment: Human FcγRIIIb binding activity by SPR; conditions: anti-EGFR antibodies as analyte, 0.9-4.7 μM
T7 construct: purchased R&D systems
T7 sequence (O75015 17-200): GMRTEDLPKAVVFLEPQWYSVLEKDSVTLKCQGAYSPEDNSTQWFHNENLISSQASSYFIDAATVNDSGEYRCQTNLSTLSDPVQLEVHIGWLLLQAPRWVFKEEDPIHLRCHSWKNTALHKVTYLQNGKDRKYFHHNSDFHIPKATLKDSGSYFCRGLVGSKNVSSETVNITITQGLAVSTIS
Protocol: as §5
Recombinant Human Fc gamma RIIIB/CD16b Protein (R&D systems) was used as human FcγRIIIb.

human FcγRI = target: T8, human FcγRI (Homo sapiens, UniProt P12314); experiment: Human FcγRI binding activity by SPR (Biacore T200); conditions: anti-EGFR antibodies as analyte, 0.3-4.7 μM; His-tagged FcγRI captured
T8 construct: purchased R&D systems
T8 sequence (P12314 16-374): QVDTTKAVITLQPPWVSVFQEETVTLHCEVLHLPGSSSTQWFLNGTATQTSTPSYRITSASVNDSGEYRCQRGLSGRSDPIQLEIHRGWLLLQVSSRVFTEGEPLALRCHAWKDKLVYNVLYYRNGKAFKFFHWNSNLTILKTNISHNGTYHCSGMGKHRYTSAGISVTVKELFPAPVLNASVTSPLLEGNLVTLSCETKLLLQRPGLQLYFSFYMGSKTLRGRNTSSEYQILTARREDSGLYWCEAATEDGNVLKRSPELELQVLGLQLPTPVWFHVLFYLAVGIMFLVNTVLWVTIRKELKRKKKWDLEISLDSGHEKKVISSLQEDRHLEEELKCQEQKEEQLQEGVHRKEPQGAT
Protocol: Anti-EGFR antibodies with various introduced effector-less mutations were evaluated for their binding activity against human FcγRI using Biacore T200 (Cytiva). […] The anti-EGFR antibody B used in the Test Example was obtained as HBS-EP+ solution by subjecting commercially available Vectibix Intravenous Infusion (Takeda Pharmaceuticals) (100 mg/5 mL) to buffer exchange using Amicon Ultra-15 Centrifugal Filter Unit (50K, produced by Merck). The binding activity was determined by allowing His-tagged human FcγRI to be captured as a ligand onto an anti-His antibody-immobilized sensor chip, then adding each anti-EGFR antibody as an analyte to the sensor chip, and measuring the interaction between the ligand and the analyte by Surface Plasmon Resonance (SPR). Anti-6× His tag antibody [AD1.1.10] (abcam) was immobilized onto Sensor Chip CM5 (Cytiva) according to the instructions of the kit. Recombinant Human Fc gamma RI/CD64 Protein (R&D systems) prepared at 10 μg/mL with HBS-EP+(GE Healthcare) was contacted with the sensor chip for 60 sec at 10 μL/min and thereby captured. Then, the anti-EGFR antibody prepared at each concentration with HBS-EP+ was added to the sensor chip for 120 sec at a flow rate of 30 μL/min.

T1 sequence (Q86WV6 with tags, fused parts or gaps G230A/H232R/R293Q): as the sequence (Q86WV6 with tags, fused parts or gaps H232R) above, with G131A, R194Q counted along it

Molecule | ΔTm (° C.) Hu-AQ [1] | ΔTm (° C.) Ms-WT [2] | ΔTm (° C.) Hu-WT [3] | ΔTm (° C.) Hu-REF [4] | further results
O=c1c2ncn([C@@H]3O[C@@H]4COP(=O)(S)O[C@H]5[C@@H](F)[C@H](n6cc7c8c(ncnc86)NCCC7)O[C@@H]5COP(=O)(S)O[C@@H]3[C@@H]4O)c2ncn1CCO (single isomer, unassigned) [Compound 34b] | 14.0 °C | 16.7 °C | 12.0 °C | 6.5 °C | –
O=c1c2ncn([C@@H]3O[C@@H]4COP(=O)(S)O[C@H]5[C@@H](O)[C@H](n6cc7c8c(ncnc86)NCCC7)O[C@@H]5COP(=O)(S)O[C@@H]3[C@@H]4F)c2ncn1CCO (single isomer, unassigned) [Compound 39b] | – | – | – | – | ΔTm at 500 µM [1]: 10.5 °C; ΔTm at 500 µM [2]: 13.1 °C; ΔTm at 500 µM [3]: 8.9 °C; ΔTm at 500 µM [4]: 3.7 °C
O=c1c2ncn([C@@H]3O[C@@H]4COP(=O)(S)O[C@H]5[C@@H](F)[C@H](n6cc7c8c(ncnc86)NCCC7)O[C@@H]5COP(=O)(S)O[C@@H]3[C@@H]4F)c2ncn1CCO (single isomer, unassigned) [Compound 44b] | 14.3 °C | 17.0 °C | 11.4 °C | 6.2 °C | –
O=c1c2ncn([C@@H]3O[C@@H]4COP(=O)(S)O[C@H]5[C@@H](F)[C@H](n6cc7c8c(ncnc86)SCCC7)O[C@@H]5COP(=O)(S)O[C@@H]3[C@@H]4O)c2ncn1CCO (single isomer, unassigned) [Compound 48b] | 17.8 °C | 15.8 °C | 14.0 °C | 7.3 °C | –
IgG2: IgG2-type anti-EGFR antibody, commercially available Vectibix Intravenous Infusion; heavy chain SEQ ID NO: 35 | – | – | – | – | RU value indicating binding to human FcγRIIb/c (rank order) (human FcγRIIb/c): IgG1 WT>IgG2>LALA>LALA-DG; RU value indicating binding to human FcγRIIIa (rank order) (human FcγRIIIa): IgG1 WT>LALA>IgG2>LALA-DG; RU value indicating binding to human FcγRIIIb (rank order) (human FcγRIIIb): IgG1 WT>LALA≈IgG2≈LALA-DG; RU value indicating binding to human FcγRI (rank order) (human FcγRI): IgG1 WT>>LALA>>IgG2>LALA-DG

The next lines start with results.

ΔTm (° C.) Hu-AQ [1] | ΔTm (° C.) Ms-WT [2] | ΔTm (° C.) Hu-WT [3] | ΔTm (° C.) Hu-REF [4] | Molecule | further results
11.3 °C | 12.9 °C | 8.4 °C | 3.4 °C | O=c1c2ncn([C@@H]3O[C@@H]4COP(=O)(S)O[C@H]5[C@@H](O)[C@H](n6cc7c8c(ncnc86)NCCC7)O[C@@H]5COP(=O)(S)O[C@@H]3[C@@H]4O)c2ncn1CCO (single isomer, unassigned) [Compound 6b] | –
10.8 °C | 12.3 °C | 9.2 °C | 4.4 °C | O=c1c2ncn([C@@H]3O[C@@H]4COP(=O)(O)O[C@H]5[C@@H](F)[C@H](n6cc7c8c(ncnc86)NCCC7)O[C@@H]5COP(=O)(S)O[C@@H]3[C@@H]4O)c2ncn1CCO (single isomer, unassigned) [Compound 52b] | –

Reference: patent US20260256934A1, “ANTIBODY-DRUG CONJUGATE INCLUDING MUTANT Fc REGION” (DAIICHI SANKYO COMPANY, LIMITED, priority 2022, published 2026)
